Laboratory results taken from patent US20220054532A1, “VETERINARY COMPOSITIONS AND METHODS OF USE THEREFOR” (priority 2019, published 2022).

What was measured:
Assay type in all cases: in vivo
[1] = tested on: dogs suffering from heart failure; assay: Example 7: heart failure in dogs; conditions: heart failure scale 1 (few to no clinical signs) to 10 (severe)
From the text: This example examines the ability of embodiments of the invention versus enalapril to treat heart failure.
The patient group is twenty-four dogs suffering from heart failure.
The patient group is broken into six groups of four dogs. The first group receives enalapril as the sole active agent; the second group receives a composition comprising enalapril and Lasix®; the third group receives a composition comprising HMW HA as the sole active agent; the fourth group receives a composition comprising CBD as the sole active agent; the fifth group receives a composition comprising HMW HA and CBD as the active agents; and the sixth group receives a composition comprising HMW HA, CBD, liposomal CoQ10, hawthorn berry, and ginko biloba as the active agents.
Each composition is administered for a period of ninety (90) days, BID. Each animal is evaluated on days 0 (“Initial Score”), 30, 60, and 90 (“Final Score”) of treatment. The results are averaged and characterized on a scale of 1 (few to no clinical signs of heart failure) to 10 (severe heart failure).
The following canine scores are observed and the results depicted in FIG. 7: […]

[2] = tested on: dogs with a history of severe, chronic skin issues, atopy, pruritis, yeast overgrowth, and/or infection; assay: Example 16: skin conditions (itch score) and side effects in dogs (CBD Complex); conditions: dogs with skin conditions; 60 days BID
From the text: (§1) This example examines the ability of embodiments of the invention versus prednisone to treat skin conditions.
(§2) The patient group is twenty-four dogs with a history of severe, chronic skin issues, atopy, pruritis, yeast overgrowth, and/or infection, as diagnosed by their referring veterinarian. The patient group is broken into six groups of four animals. The first group receives prednisone as the sole active agent; the second group receives a composition comprising prednisone and HMW HA as the active agents; the third group receives a composition comprising HMW HA as the sole active agent; the fourth group receives a composition comprising CBD as the sole active agent; the fifth group receives a composition comprising HMW HA and CBD Complex as the active agents; and the sixth group receives a composition comprising HMW HA, CBD Complex, quercetin, and nettles as the active agents.
(§3) Each composition is administered for a period of sixty (60) days, BID. Each dog is evaluated on days 0 (“Initial Score”), 20, 40, and 60 (“Final Score”) of treatment. The results are averaged and characterized on a scale of 0 (no itching—normal dog), 2 (very mild itching—only occasional episodes), 4 (mild itching), 6 (moderate itching—regular episodes), 8 (severe itching—prolonged episodes), to 10 (extremely severe itching—almost continuous).

[3] = tested on: dogs with a history of severe, chronic skin issues, atopy, pruritis, yeast overgrowth, and/or infection; assay: Example 8: skin conditions (itch score) and side effects in dogs; set-up: Average Side Effect Score: scale not given here
From the text: as §1
as §2, with “CBD” for “CBD Complex”, “CBD,” for “CBD Complex,”
as §3
The following scores are observed and the results depicted in FIG. 8: […]

[4] = tested on: dogs suffering from osteoarthritis; assay: Example 9: pain relief and side effects in canine osteoarthritis (CBD Complex); conditions: dogs with osteoarthritis, 4 weeks of administration, group average
From the text: (§4) This example examines the ability of various compositions to minimize pain and examines the level of adverse side effects of each composition.
(§5) At the outset of the study, participants receive a full physical examination, including weight measurement, thigh circumference, and CBC/blood chemistries. Because osteoarthritis is not only a disease of pain, but one characterized by behavioral, appetite, anxiety/aggression, family socialization, and sleep aberrations, the pet's owners are familiarized with the pain scale (canine orthopedic index) and additional behavioral assessment log.
(§6) The patient group is twenty-four dogs suffering from osteoarthritis, broken into eight groups of three dogs. The first group receives a control composition with no active agent; the second group receives a composition comprising HA as the sole active agent; the third group receives a composition comprising HMW HA as the sole active agent; the fourth group receives a composition comprising CBD as the sole active agent; the fifth group receives a composition comprising HA and CBD as the active agents; the sixth group receives a composition comprising HMW HA and CBD Complex as the active agents; the seventh group receives a composition comprising Rimadyl as the active agent; and the eighth group receives a composition comprising Meloxicam as the active agent.
(§7) Each composition is administered for a period of four (4) weeks. The owner completes the electronic log questionnaire each week. At the end of the 4-week study, participants have another full physical examination, including weight measurement, thigh circumference, and CBC/blood chemistries, with an exit interview of the owners to gain final impressions.
Each group is evaluated for pain scores and the scores averaged. The following scores are observed and the results depicted in FIG. 9: […]

[5] = tested on: dogs suffering from osteoarthritis; assay: Example 1: pain relief and side effects in canine osteoarthritis; conditions: dogs with osteoarthritis, 4 weeks of administration, group average
From the text: as §4, §5
as §6, with “CBD” for “CBD Complex”
as §7
Each group is evaluated for pain scores and the scores averaged. The following scores are observed and the results depicted in FIG. 1: […]

[6] = tested on: dogs suffering from cognitive dysfunction syndrome; assay: Example 10: cognitive decline, Cognitive Dysfunction Screening Checklist (CBD Complex); conditions: for Average Final Score: day 60, BID
From the text: (§8) This example examines the ability of embodiments of the invention versus Anipryl® to treat cognitive decline.
The patient group is twenty dogs suffering from cognitive dysfunction syndrome, as determined by the Cognitive Dysfunction Screening Checklist. See G. Landsberg et al., 2003 HANDBOOK OF BEHAVIOR PROBLEMS OF THE DOG AND CAT (Elsevier Science Limited) (2003). The twenty dogs are broken into five groups of four dogs. The first group receives Anipryl® as the sole active agent; the second group receives a composition comprising HMW HA as the sole active agent; the third group receives a composition comprising CBD as the sole active agent; the fourth group receives a composition comprising HMW HA and CBD Complex as the active agents; and the fifth group receives a composition comprising HMW HA, CBD Complex, nicotinamide adenine dinucleotide (“NAD”), and phosphatidylserine as the active agents.
(§9) Each composition is administered for a period of sixty (60) days, twice per day (“BID”). The owner completes the Checklist on days 0 (“Initial Score”), 15, 30, 45, and 60 (“Final Score”) of treatment.
Each group is evaluated and Checklist scores averaged. The following scores are observed and the results depicted in FIG. 10: […]

[7] = tested on: dogs suffering from cognitive dysfunction syndrome; assay: Example 2: cognitive decline, Cognitive Dysfunction Screening Checklist; conditions: for Average Final Score: day 60, BID
From the text: as §8
The patient group is twenty dogs suffering from cognitive dysfunction syndrome, as determined by the Cognitive Dysfunction Screening Checklist. See G. Landsberg et al., 2003 HANDBOOK OF BEHAVIOR PROBLEMS OF THE DOG AND CAT (Elsevier Science Limited) (2003). The twenty dogs are broken into five groups of four dogs. The first group receives Anipryl® as the sole active agent; the second group receives a composition comprising HMW HA as the sole active agent; the third group receives a composition comprising CBD as the sole active agent; the fourth group receives a composition comprising HMW HA and CBD as the active agents; and the fifth group receives a composition comprising HMW HA, CBD, nicotinamide adenine dinucleotide (“NAD”), and phosphatidylserine as the active agents.
as §9
Each group is evaluated and Checklist scores averaged. The following scores are observed and the results depicted in FIG. 2: […]

[8] = tested on: cats suffering from GI-specific inflammation; assay: Example 11: GI-specific inflammation, owner-rated symptom reduction; conditions: species not given, symptom reduction score 0 to 4
From the text: (§10) This example examines the ability of embodiments of the invention versus Pepcid® to treat unwanted GI-specific inflammation characterized by gastritis, reflux, vomiting, diarrhea, and inappetence.
(§11) The first patient group is twenty dogs suffering from GI-specific inflammation. The second patient group is twenty cats suffering from GI-specific inflammation. Each patient group is broken into five groups of four animals. The first groups receive Pepcid® as the sole active agent; the second groups receive a composition comprising HMW HA as the sole active agent; the third groups receive a composition comprising CBD as the sole active agent; the fourth groups receive a composition comprising HMW HA and CBD Complex as the active agents; and the fifth groups receive a composition comprising HMW HA, CBD Complex, and glutathione as the active agents.
(§12) Each composition is administered for a period of twenty-eight (28) days, BID. The owner observes potential reduction of symptoms at the end of treatment and rates the reduction as no reduction (score of 0), mild reduction (score of 1), moderate reduction (score of 2), significant reduction (score of 3), or resolution of symptoms (score of 4).

[9] = tested on: dogs suffering from GI-specific inflammation; assay: Example 11: GI-specific inflammation, owner-rated symptom reduction (canine, CBD Complex); conditions: canine (FIG. 11a), symptom reduction score 0 (no reduction) to 4 (resolution of symptoms)
From the text: as §10, §11, §12

[10] = tested on: cats suffering from GI-specific inflammation; assay: Example 3: GI-specific inflammation, owner-rated symptom reduction (feline); conditions: symptom reduction score 0 (no reduction) to 4 (resolution of symptoms)
From the text: as §10
as §11, with “CBD” for “CBD Complex”, “CBD,” for “CBD Complex,”
as §12
The following feline scores are observed and the results depicted in FIG. 3b: […]

[11] = tested on: dogs suffering from GI-specific inflammation; assay: Example 3: GI-specific inflammation, owner-rated symptom reduction (canine); conditions: symptom reduction score 0 (no reduction) to 4 (resolution of symptoms)
From the text: as §10
as §11, with “CBD” for “CBD Complex”, “CBD,” for “CBD Complex,”
as §12
The following canine scores are observed and the results depicted in FIG. 3a: […]

## CCOC(=O)[C@H](CCc1ccccc1)N[C@@H](C)C(=O)N1CCC[C@H]1C(=O)O [Enalapril]
[1]; day 0
  Initial Score: 8
[1]; day 90, BID
  Final Score: 5

## C[C@]12C=CC(=O)C=C1CC[C@@H]1[C@@H]2C(=O)C[C@@]2(C)[C@H]1CC[C@]2(O)C(=O)CO [Prednisone]
[2]
  Average Side Effect Score: 17
[3]; dogs with skin conditions, 60 days BID
  Average Side Effect Score: 17
[3]; itch scale 0 (no itching) to 10 (extremely severe), day 0
  Initial Itch Score: 9
[3]; itch scale 0 (no itching) to 10 (extremely severe), day 60, BID
  Final Itch Score: 6

## hyaluronic acid [HA Alone]
[4]
  Average Pain Score: 18
  Average Side Effect Score: 6
[4]; listed as HA alone
  Average Pain Score: only slightly reduce pain
  Average Side Effect Score: low degree of adverse side effects
[5]
  Average Pain Score: 18
  Average Side Effect Score: 6
[5]; listed as HA alone
  Average Pain Score: only slightly reduce pain
  Average Side Effect Score: low degree of adverse side effects

## C#CCN(C)[C@H](C)Cc1ccccc1 [Anipryl ®, Selegiline]
[6]; day 0 (before treatment)
  Average Initial Score: 3
[6]
  Average Final Score: 2
[6]; listed as Anipryl®
  Average Final Score: as effective as HMW HA alone
[7]; day 0 (before treatment)
  Average Initial Score: 3
[7]
  Average Final Score: 2
[7]; listed as Anipryl®
  Average Final Score: as effective as HMW HA alone

## NC(N)=Nc1nc(CSCCC(N)=NS(N)(=O)=O)cs1 [Pepcid ®, Famotidine]
[8]; after 28 days BID
  Final Score: 1
[8]; initial
  Initial Score: 0
[9]; after 28 days BID
  Final Score: 1
[9]; initial
  Initial Score: 0
[10]; after 28 days BID
  Final Score: 1
[10]; initial
  Initial Score: 0
[11]; after 28 days BID
  Final Score: 1
[11]; initial
  Initial Score: 0
